Columns and labels:
[1] = test system: Charles River (CD-1 COBS) albino mice; assay: in vivo
Procedure: (§1) (E)--Investigation of Acute Oral Toxicity in Mice
(§2) Charles River (CD-1 COBS) albino mice, 20-22 g in weight, were kept for some days in an air-conditioned animal house and fed with a standard diet (sterile VAR granules). They were fasted overnight before experiment, with water ad libitum. 15 Male mice and 15 female mice were used for each experiment.
(§3) N-Acetyl-para-aminophenol (NAPA) and N-acetyl-para-aminophenyl N'-acetyl-D,L-methionate (Compound A) were then administered to the mice, orally, as a suspension (shaken continuously with an electromagnetic agitator) in 5% gum arabic at a volume of 0.02 ml/g, either individually or in variously proportioned mixtures and at different dose levels, as shown in Table VII below.
(§4) A control group received only the 5% gum arabic vehicle.

in vivo = conditions: mouse, in vivo, po
Procedure: as §1, §2, §3, §4

[2] = Hydrolysis stability in simulated intestinal fluid; assay type: physicochemical
Procedure: In order first to evaluate the stability of Compound A in the gastro-intestinal tract, simulated gastric and intestinal fluids and other test fluids were prepared as follows:
PREPARATION OF SIMULATED INTESTINAL FLUID
6.1 grams of monobasic potassium phosphate and 3.9 grams of disodium hydrogen phosphate were dissolved in 1000 ml. of water. The pH of the resulting solution was 6.85.
(§5) Standard solutions of 1×10^-4 M Compound A in analytical grade methanol (0.01 ml) were prepared, and tested in the simulated gastric and intestinal fluids, in tris buffer alone, in tris buffer with added hog liver esterase and also in serum. The solutions under test were incorporated in 1 ml. of each of the test fluids. A temperature of 30° C. was used for the assays involving the hog liver esterase, whereas a temperature of 37° C. was used for the assays involving the simulated gastric and intestinal fluids and the serum. After this, the mixture was allowed to stand and the supernatant liquid was spotted onto silica t.l.c. plates and developed in 90:10 chloroform/methanol. The mixture was then extracted with 5 mls of chloroform and the chloroform-containing mixture was filtered through phase-separating papers, which allow only the chloroform solution to pass through. The chloroform solution was also spotted onto silica t.l.c. plates and developed in 90:10 chloroform/methanol.

[3] = mouse, in vivo, po
Procedure: (A)--Investigation of Serum Concentrations in Mice
36 Charles River COBS mice (18 males and 18 females) weighing 30 g each were deprived of food for 16 hours before the trial but were given their usual drinking water. Three groups, each containing 6 males and 6 females, received a dosage of 1 ml/100 g body weight per mouse, orally by stomach tube, of a suspension in 1% gum tragacanth of respectively:
Group X: 500 mg/kg of N-acetyl-para-aminophenol
A blood sample was taken by throat-slitting from one male and one female from each Group at each study time, i.e. 1/2, 1, 2, 4 and 24 hours after the oral administration.
At times 1/2, 1, 2 and 4 hours, each serum sample was divided into three 0.1 ml trial samples for the following three determinations:

[4] = Hydrolysis stability in human serum; assay type: in vitro ADME; conditions: 37° C.; for half-life: human serum from two volunteers
Procedure: The serum used in the assays was prepared by taking whole blood into plain tubes, incubating for one hour at 37° C., and then centrifuging at 2000 RPM for 10 minutes.
as §5

[5] = test system: yeast-inflamed hind-paw pain-threshold; assay: Analgesic activity, Randall-Selitto test in rats; assay type: in vivo, female Charles River rats; conditions: for P of pain-threshold (t-test versus control): 2 millimoles/kg oral
Procedure: (C)--Investigation of Analgesic Activity in Rats
A control group received only the gum tragacanth vehicle.
In order to evaluate the effect of the treatment upon pain-thresholds, pressure was applied both to the injected hind-paw and to the other non-injected hind-paw. The pain-threshold was noted as the pressure at which the rat flinched, measured using an Ugo Basile "Analgesimeter" for both hind-paws of each rat at intervals of 1 hour, 3 hours, 5 hours and 22 hours after the administration, and expressed as the percentage of the pain-threshold pressure for the injected (and thus inflamed) hind-paw as against the non-injected (and thus healthy) hind-paw.

[6] = test system: albino rats (Charles River CD-1 COBS); assay: Acute oral toxicity in rats; assay type: in vivo
Procedure: (§6) (F)--Investigation of Acute Oral Toxicity in Rats
(§7) The investigation was carried out upon groups of 10 male and 10 female albino rats (Charles River CD-1 COBS) of 80-100 g body weight. […] Before the experiment they were fasted overnight, with water ad libitum. NAPA and Compound A were then administered orally by oesophageal intubation as suspensions (continuously shaken with an electromagnetic agitator) in 1% gum arabic at a volume of 2 ml/100 g body weight, and at dose levels of 1, 2, 4 and 8 g/kg. A control group received orally, under the same experimental conditions, merely 2 ml/100 g of the suspension vehicle. The rats were then kept under observation during seven days, while their behaviour patterns were observed and the mortality recorded

[7] = Acute oral toxicity in rats; assay type: in vivo; conditions: rat, in vivo, po; for mortality at 24 h / mortality at 48 h / mortality at 72 h / mortality at 96 h / mortality at 120 h / mortality at 144 h / mortality at 168 h: Percentage Mortality
Procedure: as §6, §7

Which behaviour / symptoms ([1]; mouse, in vivo) does the source give for `CSCCC(NC(C)=O)C(=O)Oc1ccc(NC(C)=O)cc1` (racemic) [Compound A, N-acetyl-para-aminophenyl N'-acetyl-D,L-methionate] here?
Its behaviour / symptoms is “hypothermia, tremor, tail extension, epistaxis and acrocyanosis, followed by death”.

And the “LD50 compared with NAPA” value ([1]; oral, mice)?
The value was “several times greater than that of the well-tried analgesic NAPA”.

And the LD50 at 24 h (in vivo)?
The LD50 at 24 h was ≥ 4000 mg/kg.

What about the LD50 at 168 h (in vivo) of the same compound?
Its LD50 at 168 h is ≥ 4000 mg/kg.

And the half-life ([2]; simulated intestinal fluid, pH 6.85, 37° C.)?
Its half-life is 31.5 h.

And the rate of hydrolysis ([2]; simulated intestinal juice, 37° C.)?
Its rate of hydrolysis is “very slow”.

What about the “serum "total" or "enzymatic" NAPA profile” value [3] of the same compound?
Its value is “does not however give the acute peak observed at one-half an hour after the administration of NAPA+methionine”.

What about the “effect of human serum on the rate of hydrolysis” value [4] of the same compound?
The value was “increased the rate of hydrolysis”.

And the half-life [4]?
The half-life was 2.5 h.

And the half-life ([4]; human, serum, read-out: half-life)?
Its half-life is 2.33 h.

And the “Percentage Pain-Threshold (injected vs non-injected paw)” value ([5]; 1 millimole/kg oral (NAPA 151, A 324 mg/kg), 1 hr. (3.5 hrs. from yeast))?
The value was 44 ± 3.8 Percentage.

And the “Percentage Pain-Threshold (injected vs non-injected paw)” value ([5]; 1 millimole/kg oral (NAPA 151, A 324 mg/kg), 3 hrs. (5.5 hrs. from yeast))?
Its value is 41 ± 2.9 Percentage.

And the “Percentage Pain-Threshold (injected vs non-injected paw)” value ([5]; 1 millimole/kg oral (NAPA 151, A 324 mg/kg), 5 hrs. (7.5 hrs. from yeast))?
The value was 50 ±4.2 Percentage.

What about the “Percentage Pain-Threshold (injected vs non-injected paw)” value ([5]; 1 millimole/kg oral (NAPA 151, A 324 mg/kg), 22 hrs. (24.5 hrs. from yeast)) of the same compound?
Its value is 50 ± 2.4 Percentage.

What about the analgesic effect ([5]; 2 millimoles/kg level, oral) of the same compound?
The analgesic effect was “statistically-significant analgesic effect at the 2 millimoles/kg level, which is at least as great as N-acetyl-para-aminophenol (NAPA)”.

What about the “Percentage Pain-Threshold (injected vs non-injected paw)” value ([5]; 2 millimoles/kg oral (NAPA 302, A 648 mg/kg), 1 hr. (3.5 hrs. from yeast)) of the same compound?
Its value is 53 ± 3.3 Percentage.

What about the “Percentage Pain-Threshold (injected vs non-injected paw)” value ([5]; 2 millimoles/kg oral (NAPA 302, A 648 mg/kg), 3 hrs. (5.5 hrs. from yeast)) of the same compound?
Its value is 54 ±3.2 Percentage.

What about the “Percentage Pain-Threshold (injected vs non-injected paw)” value ([5]; 2 millimoles/kg oral (NAPA 302, A 648 mg/kg), 5 hrs. (7.5 hrs. from yeast)) of the same compound?
The value was 59 ± 2.7 Percentage.

What about the “Percentage Pain-Threshold (injected vs non-injected paw)” value ([5]; 2 millimoles/kg oral (NAPA 302, A 648 mg/kg), 22 hrs. (24.5 hrs. from yeast)) of the same compound?
Its value is 54 ± 1.9 Percentage.

And the “P of pain-threshold (t-test versus control)” value ([5]; 1 hr.)?
The value was < 0.02.

What about the “P of pain-threshold (t-test versus control)” value ([5]; 3 hrs.) of the same compound?
Its value is < 0.02.

What about the “P of pain-threshold (t-test versus control)” value ([5]; 5 hrs.) of the same compound?
The value was < 0.01.

What about the “P of pain-threshold (t-test versus control)” value ([5]; 22 hrs.) of the same compound?
The value was < 0.01.

And the “toxicity compared with NAPA” value ([6]; oral, rats)?
The value was “far less toxic than NAPA”.

What about the “mortality (in words)” value ([6]; oral, rats, 1-8 g/kg) of the same compound?
Its value is “no mortality was recorded at any of the different dose levels”.

What about the “mortality (in words)” value ([6]; rat, in vivo, po) of the same compound?
Its value is “did not induce any mortality at dose levels up to 8 g/kg”.

And the LD50 at 24 h [7]?
Its LD50 at 24 h is > 8000 mg/kg.

What about the LD50 at 168 h [7] of the same compound?
Its LD50 at 168 h is > 8000 mg/kg.

What about the mortality at 24 h ([7]; 1000 mg/kg) of the same compound?
Its mortality at 24 h is 0%.

And the mortality at 48 h ([7]; 1000 mg/kg)?
The mortality at 48 h was 0%.

And the mortality at 72 h ([7]; 1000 mg/kg)?
Its mortality at 72 h is 0%.

And the mortality at 96 h ([7]; 1000 mg/kg)?
The mortality at 96 h was 0%.

And the mortality at 120 h ([7]; 1000 mg/kg)?
The mortality at 120 h was 0%.

And the mortality at 144 h ([7]; 1000 mg/kg)?
The mortality at 144 h was 0%.

What about the mortality at 168 h ([7]; 1000 mg/kg) of the same compound?
Its mortality at 168 h is 0%.

And the mortality at 24 h ([7]; 2000 mg/kg)?
The mortality at 24 h was 0%.

What about the mortality at 48 h ([7]; 2000 mg/kg) of the same compound?
The mortality at 48 h was 0%.

What about the mortality at 72 h ([7]; 2000 mg/kg) of the same compound?
Its mortality at 72 h is 0%.

And the mortality at 96 h ([7]; 2000 mg/kg)?
The mortality at 96 h was 0%.

What about the mortality at 120 h ([7]; 2000 mg/kg) of the same compound?
Its mortality at 120 h is 0%.

What about the mortality at 144 h ([7]; 2000 mg/kg) of the same compound?
The mortality at 144 h was 0%.

What about the mortality at 168 h ([7]; 2000 mg/kg) of the same compound?
Its mortality at 168 h is 0%.

And the mortality at 24 h ([7]; 4000 mg/kg)?
The mortality at 24 h was 0%.

What about the mortality at 48 h ([7]; 4000 mg/kg) of the same compound?
Its mortality at 48 h is 0%.

And the mortality at 72 h ([7]; 4000 mg/kg)?
The mortality at 72 h was 0%.

What about the mortality at 96 h ([7]; 4000 mg/kg) of the same compound?
Its mortality at 96 h is 0%.

What about the mortality at 120 h ([7]; 4000 mg/kg) of the same compound?
The mortality at 120 h was 0%.

What about the mortality at 144 h ([7]; 4000 mg/kg) of the same compound?
The mortality at 144 h was 0%.

And the mortality at 168 h ([7]; 4000 mg/kg)?
Its mortality at 168 h is 0%.

And the mortality at 24 h ([7]; 8000 mg/kg)?
The mortality at 24 h was 0%.

What about the mortality at 48 h ([7]; 8000 mg/kg) of the same compound?
The mortality at 48 h was 0%.

What about the mortality at 72 h ([7]; 8000 mg/kg) of the same compound?
The mortality at 72 h was 0%.

What about the mortality at 96 h ([7]; 8000 mg/kg) of the same compound?
Its mortality at 96 h is 0%.

What about the mortality at 120 h ([7]; 8000 mg/kg) of the same compound?
Its mortality at 120 h is 0%.

And the mortality at 144 h ([7]; 8000 mg/kg)?
The mortality at 144 h was 0%.

What about the mortality at 168 h ([7]; 8000 mg/kg) of the same compound?
Its mortality at 168 h is 0%.

From US4361703A, “Para-amino(or nitro)phenyl N-acetylaminothioalkanoates” (priority 1977, dated 1982)
